Assay [1] addresses T1, human BRD4 bromodomain II (Homo sapiens, UniProt O60885).
T1 construct: human BRD4 bromodomain II [based on Genbank NM_058243, residues 349-460]; host or cells: E. coli
Nature of the assay: Bromodomain binding assay (AlphaScreen), BRD4 BDII. A digest of the protocol: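 Inhibition of acetyl-H4 peptide binding to human BRD4 bromodomains is measured by bead-based proximity (AlphaScreen) in pH 7.5 HEPES buffer containing 0.05% CHAPS and 0.1% BSA. Ten compound concentrations in 3-fold steps give competitive binding IC50s.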

Assay [2] concerns human SKM-1 acute myeloid leukemia cells. Nature of the assay: SKM-1 antiproliferation cell-based assay (ATPlite). The following applies: Homo sapiens. A digest of the protocol: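 Log-phase cells in RPMI 1640/15% FBS were seeded at 34722 cells/mL and exposed for 4 days to nine-concentration DMSO serial dilutions in triplicate. Viability was read as ATP luminescence (ATPlite 1step), and IC50 values came from variable-slope non-linear regression.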
For orientation: Cellular ATP, detected with luciferase, serves as a proxy for viable cell number.

Where [3] appears, read: AlphaScreen assay, Table C2, read-out: BRD4 BDII IC50.
The mark [4] stands for this setting: SKM-1, 96 h, SKM-1 antiproliferation assay, 4 days, Table C2.
Setting [5] is: BRD4 BDII AlphaScreen assay, read-out: BRD4 BD2 IC50.
Setting [6] is: SKM-1, SKM-1 antiproliferation assay.

The structures appear in SMILES notation. Read-outs that look alike come from different tables or passages of the source.

The term IC50 denotes the concentration at which inhibition is half-maximal. The term GI50 denotes the concentration at which growth is held to half of that of the control. Read a low GI50 as greater sensitivity of the cells.

On to `COc1ncc(-c2cc(F)cc(-c3ccc(-n4ccn(C)c4=O)c(Cl)c3)c2O)cc1N1CCN(C(C)(C)C2CC2)CC1` [Example 847, 1-(3-chloro-3′-(5-(4-(2-cyclopropylpropan-2-yl)piperazin-1-yl)-6-methoxypyridin-3-yl)-5′-fluoro-2′-hydroxy-[1,1′-biphenyl]-4-yl)-3-methyl-1H-imidazol-2(3H)-one], for which the IC50 in assay [1] (setting [3]) lay within 1 to 10 nM. Besides, the GI50 in assay [2] (setting [4]) was 0.3 to 30 nM.
As to `CC(=O)N[C@@]1(C)CCN(c2cc(-c3cc(F)cc(-c4ccc(-n5ccn(C)c5=O)c(Cl)c4)c3O)cc(=O)n2C)C1` [Example 774, (S)-N-(1-(4-(3′-chloro-5-fluoro-2-hydroxy-4′-(3-methyl-2-oxo-2,3-dihydro-1H-imidazol-1-yl)-[1,1′-biphenyl]-3-yl)-1-methyl-6-oxo-1,6-dihydropyridin-2-yl)-3-methylpyrrolidin-3-yl)acetamide], the half-inhibitory concentration (IC50) in assay [1] (setting [3]) is 1 to 10 nM. For the same compound, the GI50 in assay [2] (setting [4]) fell in the range of 30 to 300 nM.
Consider `CNc1ncc(-c2nc(C)cc(-c3ccc(-n4ccn(C)c4=O)c(Cl)c3)c2O)cc1N1CCN(C(C)(C)C)CC1` [Example 963, 1-(4-(5′-(4-(tert-butyl)piperazin-1-yl)-3-hydroxy-6-methyl-6′-(methylamino)-[2,3′-bipyridin]-4-yl)-2-chlorophenyl)-3-methyl-1H-imidazol-2(3H)-one], for which the concentration for half-maximal inhibition (IC50) in assay [1] (setting [5]) lay within 1 to 10 nM. Besides, in assay [2] (setting [6]), the GI50 was 0.3 to 30 nM.
As for `Cc1cc(-c2ccnc(N3CC[C@H](N)C3)c2)c(O)c(-c2ccc(N3CCN(C)C3=O)c(Cl)c2)c1` [Example 362, (S)-1-(3′-(2-(3-aminopyrrolidin-1-yl)pyridin-4-yl)-3-chloro-2′-hydroxy-5′-methyl-[1,1′-biphenyl]-4-yl)-3-methylimidazolidin-2-one], in assay [1] (setting [3]), the IC50 fell in the range of 1 to 10 nM. The compound further registered a GI50 in assay [2] (setting [4]) of 30 to 300 nM.
Consider `CC(=O)Nc1ccc(-c2cc(F)cc(-c3ccc(F)c(N4CCNCC4)c3)c2O)cc1F` [Example 237, N-(3,4″,5′-trifluoro-2′-hydroxy-3″-(piperazin-1-yl)-[1,1′:3′,1″-terphenyl]-4-yl)acetamide], for which the IC50 in assay [1] (setting [3]) lay in the range of 0.01 to 1 nM. Moreover, in assay [2] (setting [4]), the GI50 is 30 to 300 nM.
The matching figures for `Cn1ccn(-c2ccc(-c3cc(F)cc(-c4cccc(N5CC[C@@](C)(O)C5)c4)c3O)cc2Cl)c1=O` [Example 807, (R)-1-(3-chloro-5′-fluoro-2′-hydroxy-3″-(3-hydroxy-3-methylpyrrolidin-1-yl)-[1,1′:3′,1″-terphenyl]-4-yl)-3-methyl-1H-imidazol-2(3H)-one]: 1 to 10 nM and 30 to 300 nM.
With `CNc1ncc(-c2nc(C)cc(-c3ccc(-n4ccn(C)c4=O)c(Cl)c3)c2O)cc1N1CCC2(CCN2C(C)C)C1` (stereo not shown) [Example 980, 1-(2-chloro-4-(3-hydroxy-5′-(1-isopropyl-1,6-diazaspiro[3.4]octan-6-yl)-6-methyl-6′-(methylamino)-[2,3′-bipyridin]-4-yl)phenyl)-3-methyl-1H-imidazol-2(3H)-one], the IC50 in assay [1] (setting [5]) was in the range of 1 to 10 nM. In assay [2] (setting [6]), this compound returned a GI50 of 0.3 to 30 nM.
Regarding `Cn1ccn(-c2ccc(-c3cc(F)cc(-c4ccc5ncc(C(C)(C)O)cc5c4)c3O)cc2Cl)c1=O` [Example 796, 1-(3-chloro-5′-fluoro-2′-hydroxy-3′-(3-(2-hydroxypropan-2-yl)quinolin-6-yl)-[1,1′-biphenyl]-4-yl)-3-methyl-1H-imidazol-2(3H)-one], the IC50 in assay [1] (setting [3]) lay within 1 to 10 nM. The GI50 in assay [2] (setting [4]) was in the range of 30 to 300 nM.
The matching figures for `Cn1ccn(-c2ccc(-c3cc(F)cc(-c4ccnc(N5CCC(C)(O)C5)c4)c3O)cc2Cl)c1=O` (stereo not shown) [Example 685, 1-(3-chloro-5′-fluoro-2′-hydroxy-3′-(2-(3-hydroxy-3-methylpyrrolidin-1-yl)pyridin-4-yl)-[1,1′-biphenyl]-4-yl)-3-methyl-1H-imidazol-2(3H)-one]: 0.01 to 1 nM and 0.3 to 30 nM.
For `CN1CCN(c2ccc(-c3cc(F)cc(-c4ccnc(N5CCNCC5)c4)c3N)cc2Cl)C1=O` [Example 406, 1-(2′-amino-3-chloro-5′-fluoro-3′-(2-(piperazin-1-yl)pyridin-4-yl)-[1,1′-biphenyl]-4-yl)-3-methylimidazolidin-2-one], in that order: 10 to 100 nM and 30 to 300 nM.
The matching figures for `CC#Cc1ncc(-c2cc(F)cc(-c3ccc(N4CCN(C)C4=O)c(Cl)c3)c2O)cc1N1CCNCC1` [Example 403, 1-(3-chloro-5′-fluoro-2′-hydroxy-3′-(5-(piperazin-1-yl)-6-(prop-1-yn-1-yl)pyridin-3-yl)-[1,1′-biphenyl]-4-yl)-3-methylimidazolidin-2-one]: 1 to 10 nM and 0.3 to 30 nM.
Turning to `C[C@@H]1CN(c2cc(-c3cc(F)cc(-c4ccc(-n5ccn(C)c5=O)c(Cl)c4)c3O)cc3[nH]ccc23)CCN1` [Example 551, (R)-1-(3-chloro-5′-fluoro-2′-hydroxy-3′-(4-(3-methylpiperazin-1-yl)-1H-indol-6-yl)-[1,1′-biphenyl]-4-yl)-3-methyl-1H-imidazol-2(3H)-one], the IC50 in assay [1] (setting [3]) lay within 0.01 to 1 nM. This compound had a GI50 in assay [2] (setting [4]) of 0.3 to 30 nM.
For `Cn1ccn(-c2ccc(-c3cc(F)cc(-c4cc(N5C[C@@H](N)C6(CC6)C5)c5cn[nH]c5c4)c3O)cc2Cl)c1=O` [Example 598, (S)-1-(3′-(4-(7-amino-5-azaspiro[2.4]heptan-5-yl)-1H-indazol-6-yl)-3-chloro-5′-fluoro-2′-hydroxy-[1,1′-biphenyl]-4-yl)-3-methyl-1H-imidazol-2(3H)-one], in that order: 1 to 10 nM and 0.3 to 30 nM.
The matching figures for `Cn1ccn(-c2ccc(-c3cc(F)cc(-c4ccnc(N5CCS(=O)(=O)CC5)c4)c3O)cc2Cl)c1=O` [Example 707, 1-(3-chloro-3′-(2-(1,1-dioxidothiomorpholino)pyridin-4-yl)-5′-fluoro-2′-hydroxy-[1,1′-biphenyl]-4-yl)-3-methyl-1H-imidazol-2(3H)-one]: 1 to 10 nM and 30 to 300 nM.
Turning to `CN1CCN(c2cc(-c3cc(F)cc(-c4ccc(N5CCN(C)C5=O)c(Cl)c4)c3O)ccn2)CC1` [Example 441, 1-(3-chloro-5′-fluoro-2′-hydroxy-3′-(2-(4-methylpiperazin-1-yl)pyridin-4-yl)-[1,1′-biphenyl]-4-yl)-3-methylimidazolidin-2-one], the IC50 in assay [1] (setting [3]) was in the range of 1 to 10 nM. The compound also displayed a GI50 in assay [2] (setting [4]) of 30 to 300 nM.
For `Cn1ccn(-c2ccc(-c3cc(F)cc(-c4ccnc(N5CCN(CCC6CC6)CC5)c4)c3O)cc2Cl)c1=O` [Example 681, 1-(3-chloro-3′-(2-(4-(2-cyclopropylethyl)piperazin-1-yl)pyridin-4-yl)-5′-fluoro-2′-hydroxy-[1,1′-biphenyl]-4-yl)-3-methyl-1H-imidazol-2(3H)-one], in that order: 0.01 to 1 nM and 0.3 to 30 nM.
The matching figures for `CC(=O)Nc1ccc(-c2cccc(-c3cncc(N4CCNCC4)c3)c2O)cc1F` [Example 189, N-(3-fluoro-2′-hydroxy-3′-(5-(piperazin-1-yl)pyridin-3-yl)-[1,1′-biphenyl]-4-yl)acetamide]: 1 to 10 nM and 30 to 300 nM.
Turning to `CN1CCN(c2ccc(-c3cc(F)cc(-c4ccnc(N5CC[C@H](N)C5)c4)c3O)cc2Cl)C1=O` [Example 353, (S)-1-(3′-(2-(3-aminopyrrolidin-1-yl)pyridin-4-yl)-3-chloro-5′-fluoro-2′-hydroxy-[1,1′-biphenyl]-4-yl)-3-methylimidazolidin-2-one], the IC50 in assay [1] (setting [3]) was in the range of 1 to 10 nM. In assay [2] (setting [4]), this compound had a GI50 of 30 to 300 nM.
The matching figures for `Cn1ccn(-c2ccc(-c3cc(F)cc(-c4ccnc(N5CCC(C)(C(N)=O)C5)c4)c3O)cc2Cl)c1=O` (stereo not shown) [Example 773, 1-(4-(3′-chloro-5-fluoro-2-hydroxy-4′-(3-methyl-2-oxo-2,3-dihydro-1H-imidazol-1-yl)-[1,1′-biphenyl]-3-yl)pyridin-2-yl)-3-methylpyrrolidine-3-carboxamide]: 1 to 10 nM and 30 to 300 nM.
Consider `Cc1cc(-c2cc(F)cc(-c3cccc(N4CCN(C(C)(C)C)CC4)c3)c2O)ccc1-n1ccn(C)c1=O` [Example 949, 1-(3″-(4-(tert-butyl)piperazin-1-yl)-5′-fluoro-2′-hydroxy-3-methyl-[1,1′:3′,1″-terphenyl]-4-yl)-3-methyl-1,3-dihydro-2H-imidazol-2-one], for which the IC50 in assay [1] (setting [5]) is 1 to 10 nM. In assay [2] (setting [6]), this compound gave a GI50 of 0.3 to 30 nM.
For `CC(C)N1C2CCC1CN(c1cncc(-c3cc(F)cc(-c4ccc(-n5ccn(C)c5=O)c(Cl)c4)c3O)c1)C2` [Example 740, 1-(3-chloro-5′-fluoro-2′-hydroxy-3′-(5-(8-isopropyl-3,8-diazabicyclo[3.2.1]octan-3-yl)pyridin-3-yl)-[1,1′-biphenyl]-4-yl)-3-methyl-1H-imidazol-2(3H)-one], the IC50 in assay [1] (setting [3]) was in the range of 0.01 to 1 nM. In addition, the GI50 in assay [2] (setting [4]) lay within 0.3 to 30 nM.
For `Cn1ccn(-c2ccc(-c3cc(F)cc(-c4cncc(N5CCC(C)(N)C5)c4)c3O)cc2Cl)c1=O` (stereo not shown) [Example 745, 1-(3′-(5-(3-amino-3-methylpyrrolidin-1-yl)pyridin-3-yl)-3-chloro-5′-fluoro-2′-hydroxy-[1,1′-biphenyl]-4-yl)-3-methyl-1H-imidazol-2(3H)-one], in that order: 0.01 to 1 nM and 0.3 to 30 nM.
`Cc1ncc(-c2cc(F)cc(-c3ccc(-n4ccn(C)c4=O)c(Cl)c3)c2O)cc1N1CCC2(CCN2C(C)C)C1` (stereo not shown) [Example 891]: the IC50 in assay [1] (setting [5]) was 1 to 10 nM. This compound registered a concentration for 50% growth inhibition (GI50) in assay [2] (setting [6]) of 0.3 to 30 nM.

Source of the values: patent US20250179059A1 (The Regents of the University of California, priority 2021, published 2025).
